Some results are limits rather than exact numbers.

This note sets out measurements from PubChem BioAssay AID652053 (Broad Institute, 2013).

The subject of the assay is Huh7 psiCHECK-miR122 Renilla luciferase reporter, 48 h. The assay can be described thus: miR-122 inhibitors in Huh7 reporter cells, dose response, cell-based, Huh7 psiCHECK-miR122, Renilla luciferase, cherry-pick (AID 652053).
Turning to `Cc1ccc(S(=O)(=O)NCC[C@@H]2CC[C@@H](NC(=O)c3cnccn3)[C@H](CO)O2)cc1`, the AC40 is 10.2 µM.

Take `COc1ccc(NS(=O)(=O)c2cc(C)ccc2NC(=O)c2cc(C)oc2C)cc1`: the AC40 is 3.23 µM.

Turning to `O=C(c1cn(Cc2ccccc2)nc1-c1ccc(Cl)cc1)N1CCN(c2ccccn2)CC1`, the AC40 is 3.28 µM.

Turning to `O=S(=O)(Nc1ncnc2c1oc1ccccc12)c1ccc(Cl)s1`, the AC40 was 18.8 µM.

In the case of `COc1cccc(NS(=O)(=O)c2cc(C)sc2C)c1`, the AC40 is 1.43 µM.

With `COc1ccccc1CN(C)C(=O)c1cccc(S(=O)(=O)N2CCCc3ccccc32)c1`, the AC40 is 4.57 µM.

As for `COc1ccc(NC(=O)Cc2cccc(F)c2)cc1S(=O)(=O)Nc1ccccc1Cl`, the AC40 is 4.83 µM.

Regarding `CC(OC(=O)c1cccc(S(=O)(=O)Nc2cccc(C(F)(F)F)c2)c1)C(=O)Nc1ccc2c(c1)OCCO2` (stereo not given), the AC40 was 3.57 µM.

In the case of `COc1cc(CN(C)C(=O)C(=O)c2c[nH]c3ccccc23)ccc1O`, the AC40 was 6.67 µM.

Take `CCOc1cc(C)c(Cl)cc1S(=O)(=O)NCc1ccco1`: the AC40 is 1.79 µM.

In the case of `COc1ccc(C)cc1S(=O)(=O)Nc1cc(Cl)ccc1Cl`, the AC40 was 2.5 µM.

Take `CCNS(=O)(=O)c1cc(Br)ccc1OC`: the AC40 was 3.4 µM.

`CCOc1cc(C)c(C(C)C)cc1S(=O)(=O)NCc1ccccn1`: the AC40 is 0.392 µM.

With `COc1ccc(S(=O)(=O)NC2CCCCC2)c(C)c1C`, the AC40 was 1.57 µM.

For the compound `O=C(Nc1ccc(S(=O)(=O)Nc2nccs2)cc1)c1cc(-c2ccccc2Cl)nc2ccccc12`, the AC40 is 2.48 µM.

For the compound `Cc1cc(S(=O)(=O)NCC(c2ccccc2)c2ccccc2)ccc1-n1cnnn1`, the AC40 was 2.23 µM.

On to `Cc1noc(C)c1S(=O)(=O)N(C)C[C@@H]1Oc2c(NC(=O)C3CCOCC3)cccc2C(=O)N([C@@H](C)CO)C[C@@H]1C`, for which the AC40 was 4.51 µM.

Consider `C[C@@H]1CN([C@H](C)CO)C(=O)c2cc(NC(=O)Cc3ccccc3)ccc2O[C@@H]1CN(C)S(=O)(=O)c1ccc(Cl)cc1`, for which the AC40 was 1.31 µM.

`O=C(c1ccc(F)cc1)N1C[C@@H]2[C@H](c3ccccc31)[C@H](CO)N2C(=O)c1ccc(F)cc1`: the AC40 is 2.35 µM.

Turning to `CC(NC(=S)Nc1ccc(Cl)cc1Cl)C(c1cccs1)N1CCCC1` (stereo not given), the AC40 is 23.8 µM.

On to `Cc1ccc(S(=O)(=O)Nc2ccc3ncccc3c2)cc1`, for which the AC40 was 11.6 µM.

In the case of `Cc1ccc(C(=O)NCCSc2ccccc2)cc1S(=O)(=O)Nc1ccccc1`, the AC40 is 4.09 µM.

As to `Cc1cc(S(=O)(=O)Nc2ccc3cn[nH]c3c2)c(C)cc1Cl`, the AC40 was 2.11 µM.

`Cc1cc(C(=O)Nc2cccc3c2O[C@@H](CN(C)Cc2ccc(C(F)(F)F)cc2)[C@H](C)CN([C@H](C)CO)C3=O)n(C)n1`: the AC40 is 3.62 µM.

Regarding `Cc1cc(C)cc(Cn2c3ccc(NC(=S)NCc4ccccc4F)cc3c(=O)n2C)c1`, the AC40 was 4.19 µM.

Take `Cc1ccc(C(C)C)cc1S(=O)(=O)NC1CC(C)(C)NC(C)(C)C1`: the AC40 is 8.18 µM.

For the compound `Cc1ccc(C(=O)Nc2ccccc2C(=O)O)cc1S(=O)(=O)Nc1ccccc1`, the AC40 was 2.74 µM.

Consider `COc1ccccc1NS(=O)(=O)c1cc(NC(=O)c2sccc2C)ccc1N1CCCC1`, for which the AC40 is 1.12 µM.

With `COc1ccc(NS(=O)(=O)c2cc(NC(=O)c3cccc(OCc4c(C)noc4C)c3)ccc2OC)cc1`, the AC40 is 2.57 µM.

Regarding `Cc1ccc(NS(=O)(=O)c2cc(C(=O)Nc3cccc([N+](=O)[O-])c3)ccc2C)cc1`, the AC40 was 2.5 µM.

As to `Cc1cc(C)cc(NS(=O)(=O)c2cc(Br)cnc2N)c1`, the AC40 was 0.656 µM.

Regarding `COc1ccccc1NS(=O)(=O)c1cc(NC(=O)CCC(=O)c2cccs2)ccc1Cl`, the AC40 was 21.7 µM.

`O=C(Cc1ccccc1)N1C[C@H]2[C@@H](c3ccccc31)[C@@H](CO)N2C(=O)C1CCCCC1`: the AC40 was 6.07 µM.

Consider `COc1ccc(NS(=O)(=O)c2ccc(NC(=S)NC(=O)CC(C)C)cc2)cc1`, for which the AC40 is 0.502 µM.

`Cc1ccc(NS(=O)(=O)c2cc(-c3cc(C)no3)ccc2C(C)C)nc1`: the AC40 is 2.23 µM.

`O=C(Nc1ccccc1F)N1C[C@H]2[C@@H](c3ccccc31)[C@@H](CO)N2C(=O)c1ccc(F)cc1`: the AC40 is 1.25 µM.

Turning to `Cc1c(C)c(C)c(S(=O)(=O)NCCc2ccccn2)c(C)c1C`, the AC40 is 1.69 µM.

For the compound `COc1ccc(S(=O)(=O)NCc2ccccc2)cc1`, the AC40 is 2.53 µM.

On to `O=C(Nc1ccccc1)c1ccc(NC2CCCCC2)c(S(=O)(=O)N2CCOCC2)c1`, for which the AC40 is 13.9 µM.

For the compound `Cc1ccc(NS(=O)(=O)c2cc(C(=O)N3CCN(C)CC3)ccc2C)cc1C`, the AC40 is 25.1 µM.

Regarding `CCc1c(C(=O)Nc2cc(C)cc(C)c2)[nH]c(C)c1C(C)=O`, the AC40 is 14.8 µM.

As for `CC(C)CNS(=O)(=O)c1ccc2c(c1)OCCO2`, the AC40 is 5.9 µM.

`CCCNC(=O)C[C@H]1CC[C@H]2[C@H](COc3ccc(NC(=O)c4ccc5c(c4)OCO5)cc3C(=O)N2C)O1`: the AC40 is 14.2 µM.

Turning to `O=C1NC(c2cccc3ccccc23)Nc2ccccc21` (stereo not given), the AC40 was 5.65 µM.

In the case of `CC(c1ccco1)N(C(=O)CSc1ccc(Br)cc1)c1ccccn1` (stereo not given), the AC40 was 14.4 µM.

`O=S(=O)(Nc1ccc(Cl)cc1)c1ccc2c(c1)CCO2`: the AC40 is 2.26 µM.

On to `Cc1ccc(C)c(S(=O)(=O)Nc2ccc(C(=O)N3CCCCC3)cc2)c1`, for which the AC40 is 3.58 µM.

`C[C@H](CO)N1C[C@H](C)[C@H](CN(C)Cc2ccc(C(=O)Nc3ccccc3N)cc2)Oc2ccc(NS(=O)(=O)c3ccc(Cl)cc3)cc2CC1=O`: the AC40 is 7.89 µM.

As to `COc1cccc(-c2ccc3c(c2)[C@H]2[C@H](CCN2S(=O)(=O)c2ccccc2C)[C@@H](CO)N3)c1`, the AC40 was 14.3 µM.

For the compound `S=C(NCc1ccncc1)Nc1cc(Cl)cc(Cl)c1`, the AC40 was 5.2 µM.

In the case of `O=S(=O)(Nc1ccc(Cl)cc1)c1cccc2cccnc12`, the AC40 is 4.21 µM.

On to `COc1cc(S(=O)(=O)Nc2ccccc2N2CCCCC2)ccc1NC(C)=O`, for which the AC40 was 6.94 µM.

Consider `C[C@@H]1CN([C@@H](C)CO)C(=O)c2cccc(NC(=O)c3cnccn3)c2O[C@H]1CN(C)Cc1ccc(C(F)(F)F)cc1`, for which the AC40 was 19.2 µM.

Turning to `Cc1ccc(C)c(S(=O)(=O)Nc2ccc(-n3cnnn3)cc2)c1`, the AC40 is < 0.26 µM.

With `COc1ccccc1S(=O)(=O)Nc1cccc(S(=O)(=O)N2CCCC2)c1`, the AC40 is 1.26 µM.

In the case of `CC(=O)N1CCc2cc(S(=O)(=O)Nc3cccc(C(F)(F)F)c3)ccc21`, the AC40 is 2.92 µM.

On to `COc1ccc(S(=O)(=O)Nc2ccc(F)cc2)cc1N(C)S(=O)(=O)c1ccc(Cl)cc1`, for which the AC40 is 4.94 µM.

Turning to `CCCC(=O)NC(=S)Nc1ccc(S(=O)(=O)Nc2ccc(OCC)cc2)cc1`, the AC40 is 1.42 µM.

As to `CC(=O)c1cccc(NS(=O)(=O)c2cc(-c3cnc(C4CC4)o3)ccc2C)c1`, the AC40 was 6.63 µM.

With `COc1ccc(NS(=O)(=O)c2cc(C)ccc2C)cc1`, the AC40 was 1.47 µM.

In the case of `COc1ccc(S(=O)(=O)NCc2ccco2)c2ccccc12`, the AC40 was 2.62 µM.

In the case of `CC(C)(C)c1cc(C(=O)NNc2cccc(Cl)c2)n(Cc2ccccc2)n1`, the AC40 is 4.19 µM.

As to `C[C@@H]1CN([C@H](C)CO)C(=O)c2cc(N(C)C)ccc2O[C@@H]1CN(C)S(=O)(=O)c1ccc(Cl)cc1`, the AC40 is 6.57 µM.

For the compound `Cc1ccc(-c2nnc(Nc3ccccc3)c3ccccc23)cc1S(=O)(=O)NCC1CCCO1` (stereo not given), the AC40 is 0.63 µM.

Regarding `C[C@H]1CN([C@@H](C)CO)C(=O)Cc2cc(N(C)C)ccc2O[C@@H]1CN(C)Cc1ccc(C(=O)Nc2ccccc2N)cc1`, the AC40 is 25.7 µM.

`CN1C(=O)c2cccc3c(S(=O)(=O)NCCc4ccccc4)ccc1c23`: the AC40 was 0.281 µM.

For the compound `CCCCNS(=O)(=O)c1ccc(NC(=O)c2cccs2)cc1`, the AC40 is 1.09 µM.

`CCCn1c(NC(=O)c2cccc(C)c2C)nc2ccccc21`: the AC40 was 16.2 µM.

In the case of `CCC(=O)Nc1ccc(S(=O)(=O)NCCc2ccccc2)cc1`, the AC40 was 10.7 µM.

`CN1c2ccc(-c3cccc(F)c3)cc2[C@H]2[C@H](CCN2C(=O)c2ccccc2F)[C@H]1CO`: the AC40 was 0.528 µM.

Take `O=S(=O)(Nc1ccc(C(O)(C(F)(F)F)C(F)(F)F)cc1)c1cccc2ccccc12`: the AC40 was 1.45 µM.

Consider `O=S(=O)(c1ccccc1)N1C[C@H]2[C@@H](c3ccccc31)[C@@H](CO)N2Cc1ccc2c(c1)OCO2`, for which the AC40 was 8.56 µM.

Take `Nc1ncc(Br)cc1S(=O)(=O)NCCc1ccccc1`: the AC40 was 0.647 µM.

Turning to `CCOc1ccccc1NC(=O)Cn1nnc(C(=O)NCc2cccs2)c1N`, the AC40 is 5.91 µM.

For `O=S(=O)(NCC1CCCO1)c1cc(Br)c(Br)s1` (stereo not given), the AC40 is 4 µM.

As for `COc1ccc(C(=O)Nc2ccc(S(=O)(=O)NCc3ccco3)cc2)cc1OC`, the AC40 was 4.75 µM.

As for `O=C(c1ccc(F)cc1)N1C[C@H]2[C@@H](c3ccccc31)[C@@H](CO)N2C(=O)c1ccc(F)cc1`, the AC40 was 1.59 µM.

As for `COc1ccc(OC)c(S(=O)(=O)Nc2cc3c4c(c2)CCN4C(=O)CC3)c1`, the AC40 is 2.85 µM.

As to `Cc1ccc(O)c(NC(=O)c2cccc(S(=O)(=O)N3CCCCC3)c2)c1`, the AC40 was 2.39 µM.

With `COc1ccc(OC)c(C(c2nnnn2C2CCCC2)N2CCN(c3ccccc3F)CC2)c1` (stereo not given), the AC40 is 12.3 µM.

In the case of `COc1ccc(C(=O)NC(=S)Nc2ccc(S(=O)(=O)Nc3cc(OC)ncn3)cc2)cc1`, the AC40 was 4.82 µM.

In the case of `C[C@H](CO)N1C[C@H](C)[C@@H](CN(C)Cc2ccc(Cl)c(Cl)c2)Oc2c(NS(=O)(=O)c3cccs3)cccc2C1=O`, the AC40 was 2.7 µM.

Take `COc1ccc(Br)cc1S(=O)(=O)N1CCN=C1c1ccccc1`: the AC40 was 9.26 µM.

Consider `Cc1cc(C)c(S(=O)(=O)NC2CC3CCC2C3)c(C)c1` (stereo not given), for which the AC40 is 0.6 µM.

With `CCOc1ccccc1N(CC(=O)Nc1cccnc1)S(=O)(=O)c1ccc(C)cc1`, the AC40 is 8.03 µM.

`COC(=O)C1CC23C=CCN4CCC5(c6ccccc6NC15C2C)C43` (stereo not given): the AC40 was 20.1 µM.

Take `C[C@@H]1CN([C@@H](C)CO)C(=O)Cc2cc(NC(=O)Nc3ccc4c(c3)OCO4)ccc2O[C@@H]1CN(C)C(=O)Nc1cccc2ccccc12`: the AC40 was 10.9 µM.

As to `COc1ccc(NS(=O)(=O)c2cc(OC)ccc2OC)cc1`, the AC40 is 5.31 µM.

Regarding `COc1ccc(S(=O)(=O)N(CC(=O)Nc2cc(C)on2)Cc2ccccc2)cc1`, the AC40 was 21.3 µM.

`O=C(NCCCN1CCCC1=O)c1cccc(S(=O)(=O)Nc2ccc(Br)cc2)c1`: the AC40 is 7.56 µM.
